Assay results reported in patent US20190225643A1, “NOVEL NUCLEOSIDE ANALOGS AND USE THEREOF IN THERAPEUTIC TREATMENT” (CORNELL UNIVERSITY, priority 2016, published 2019).

Assays:
[1] = tested on: MM cell lines JJN3, MM1S, U266 and CAG; experiment: CellTiter-Glo viability assay, MM cell lines; type: cell-based
Experimental: (§1) Cell viability assays were performed by plating log-phase cells in RPMI complete media with 20% FBS at 1*10^5 cells/mL, with concentrations of 6-ETI or phospho-6-ETI ranging from 0.1 nM to 100 μM. ATP content at 24, 48 and 72 hours post-treatment was measured by the CellTiter-Glo kit (Promega, Madison, Wis.), or by Trypan blue assay as indicated. The LC50 for 6-ETI in each cell line was determined using online EC50 software at changbioscience.com or using GraphPad Prism to determine the LC50 for 6-ETI, phospho-6-ETI and nucleoside analogs in MM cell lines and primary MM patient samples.

IBL-1 (EBV+ DLBCL) = experiment: cells; type: cell-based; conditions: Homo sapiens, 48 h, read-out: LC50 IBL-1 (DLBCL)
Experimental: as §1

BC3 (PEL) = experiment: cells; type: cell-based; conditions: Homo sapiens; 48 hours, CellTiter-Glo; read-out: LC50 BC3 (PEL)
Experimental: as §1

U266 (MM) = experiment: cells; type: cell-based; conditions: Homo sapiens, U-266, 48 h, read-out: LC50 U266 (MM) in nM
Experimental: as §1

BC3 cells [2] = experiment: Trypan-blue exclusion viability, PEL cell line; type: cell-based; conditions: Homo sapiens, BC-3; selected PEL cell line (BC3), 48 hours; read-out: LC50 by Trypan-blue exclusion
Experimental: as §1

PEL cells (BC1, BC3) = experiment: Immunoblotting of PARP cleavage, LC3B cleavage and γH2AX in PEL cells; type: cell-based, human
Experimental: For all intracellular signaling studies, cell lines were plated at 2*10^5 cells/mL or at indicated densities in RPMI-1640 with 20% FBS, and treated with the stated concentrations of 6-ETI, from 6 to 48 hours. Immunoblotting was performed using the following antibodies: PARP (BD Pharmingen, 556494), LC3B (Cell Signaling, 2775S), phospho-l-listone H2AX.X S139 (Cell Signaling, 2577S), GAPDH (Gene Tex, GTX100118), ADK (Santa Cruz, sc-365470) vFLIP 6/14 antibody was a gift from Mary Collins at University College of London, vCyclin (Abcam, ab12208), LANA (Advanced Biotechnologies, 13-210-100), β-Actin (Sigma A5316), p65 (Cell Signaling C22B4, p50 (Cell Signaling 3035), October-1 (Cell Signaling 4428), p-IκBα (Santa Cruz 3-9 sc-8404), IκBα (Santa Cruz C-21 sc-371), pIKKα/β (ser 176)(Santa Cruz sc-21661), IKKα (Santa Cruz H-744 sc-7218).

BC3 cells [3] = experiment: Propidium iodide cell cycle flow cytometry; type: cell-based, human; conditions: BC3, 1 μM, 24 hours
Experimental: BC3 cells in the exponential phase were seeded at a cell density of 2*10^5 cells/mL. Cells were treated with 0.1% DMSO or with 6-ETI at a final concentration of 1 μM 6-ETI for 24 hrs for cell cycle. Post-treatment, cells were harvested, fixed and stained in Propidium Iodide (Roche). Subsequently, stained cells were analyzed by flow cytometry using BD FACS Aria II SORP cell sorter, and phases of the cell cycle modeled using FlowJo v7.6.5.

For CCSc1ncnc2c1ncn2[C@@H]1O[C@H](CO)C(O)[C@@H]1O (stereo partly drawn) [Compound 6-ETI, 6-ethylthioinosine], the LC50 [1] was “high nM range”, the CC50 (IBL-1 (EBV+ DLBCL)) was > 100 µM and the CC50 (BC3 (PEL)) was 49.8 nM. For the same compound, the CC50 (U266 (MM)) was 437 nM, the CC50 (BC3 cells [2]) was 74 nM and the “DNA damage marker γH2AX” value (PEL cells (BC1, BC3); 1 μM and 10 μM, 24 hours) was “appearance of γH2AX”. The “autophagy (LC3B cleavage product)” value (PEL cells (BC1, BC3); 1 μM, 24 hr) was “some induction of autophagy”, the “apoptosis (PARP cleavage)” value (PEL cells (BC1, BC3); BC1 and BC3, 1 μM, 24 hrs) was “small but observable increases in apoptosis” and the cell cycle distribution (BC3 cells [3]) was “reproducible increase in the percentage of cells in S-phase”.
